Experimental data published in ChEMBL document CHEMBL1201862, “PubChem BioAssay data set” (2004).
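Exposure lasted 48 hours, with cells grown in 96-well plates and compounds tested at five concentrations. GI50 marks 50% less growth.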 Active and inactive are the calls of the source. Rule as the data show it: active = GI50 up to about 1.1 µM and inactive = higher.

Experiments:
Assay in all cases: growth of human tumour cells (NCI), 48 h
MOLT-4 = system: MOLT-4
SF-295 = system: SF-295
SK-MEL-5 = system: SK-MEL-5
SN12C = system: SN12C
HL-60 = system: HL-60
BT-549 = system: BT-549
MCF7 = system: MCF7
SK-MEL-28 = system: SK-MEL-28
EKVX = system: EKVX
M14 = system: M14
NCI-H23 = system: NCI-H23
UACC-257 = system: UACC-257
TK-10 = system: TK-10
K562 = system: K562
U-251 = system: U-251
SR = system: SR
DU-145 = system: DU-145
A549 = system: A549
HOP-92 = system: HOP-92
MDA-MB-435 = system: MDA-MB-435

| SMILES | GI50 (MOLT-4) | GI50 (SF-295) | GI50 (SK-MEL-5) | GI50 (SN12C) | GI50 (HL-60) | GI50 (BT-549) | GI50 (MCF7) | GI50 (SK-MEL-28) | GI50 (EKVX) | GI50 (M14) | GI50 (NCI-H23) | GI50 (UACC-257) | GI50 (TK-10) | GI50 (K562) | GI50 (U-251) | GI50 (SR) | GI50 (DU-145) | GI50 (A549) | GI50 (HOP-92) | GI50 (MDA-MB-435) |
| --- | --- | --- | --- | --- | --- | --- | --- | --- | --- | --- | --- | --- | --- | --- | --- | --- | --- | --- | --- | --- |
| COC(=O)N/N=C(\C)C(CN1CCOCC1)C(c1ccccc1)c1cc2ccccc2oc1=O (stereo not given) | 44.2 µM (inactive) | > 100 µM (inactive) | > 100 µM (inactive) | > 100 µM (inactive) | 36.3 µM (inactive) | 68.7 µM (inactive) | > 100 µM (inactive) | > 100 µM (inactive) | > 100 µM (inactive) | > 100 µM (inactive) | > 100 µM (inactive) | 82.4 µM (inactive) | > 100 µM (inactive) | 70.5 µM (inactive) | > 100 µM (inactive) | 23.9 µM (inactive) | > 100 µM (inactive) | > 100 µM (inactive) | 30.5 µM (inactive) | > 100 µM (inactive) |
| C[N+](C)(C)CCN[N+]1(C)CCCc2ccccc21 (stereo not given) | 31 µM (inactive) | > 100 µM (inactive) | > 100 µM (inactive) | > 100 µM (inactive) | 0.67 µM (active) | > 100 µM (inactive) | > 100 µM (inactive) | > 100 µM (inactive) | > 100 µM (inactive) | > 100 µM (inactive) | > 100 µM (inactive) | > 100 µM (inactive) | > 100 µM (inactive) | 39 µM (inactive) | 52.1 µM (inactive) | 50.2 µM (inactive) | > 100 µM (inactive) | > 100 µM (inactive) | > 100 µM (inactive) | > 100 µM (inactive) |
| COC1=C(N=[N+]=[N-])C(=O)c2ncccc2C1=O | 0.887 µM (active) | 15.6 µM (inactive) | 10.1 µM (inactive) | 15.5 µM (inactive) | 0.962 µM (active) | 10.8 µM (inactive) | 1.82 µM (inactive) | 14.3 µM (inactive) | 8.61 µM (inactive) | 3.73 µM (inactive) | 5.36 µM (inactive) | 4.34 µM (inactive) | 10.9 µM (inactive) | 2.84 µM (inactive) | 14.6 µM (inactive) | 2.36 µM (inactive) | 20.8 µM (inactive) | 16.6 µM (inactive) | 1.29 µM (inactive) | 2.12 µM (inactive) |
| COC(=O)/C=C(/C(=O)OC)c1c(C)cc2c(C)cc(C)cc(C)c1-2 | 5.46 µM (inactive) | 7.24 µM (inactive) | 8.15 µM (inactive) | 14.9 µM (inactive) | 4.13 µM (inactive) | 15 µM (inactive) | 4.1 µM (inactive) | 24.3 µM (inactive) | 32.1 µM (inactive) | 8.28 µM (inactive) | 18.5 µM (inactive) | 19.3 µM (inactive) | 27.1 µM (inactive) | 4.45 µM (inactive) | 8.26 µM (inactive) | 4.19 µM (inactive) | 22.4 µM (inactive) | 14.9 µM (inactive) | 31.6 µM (inactive) | 2.77 µM (inactive) |
| CC(=O)OCC1(C)C(O)CCC2(C)C1CCC1CC3CC12CCC3(O)CO (stereo not given) | > 56.5 µM (inactive) | 10.8 µM (inactive) | > 79.4 µM (inactive) | > 100 µM (inactive) | 6.35 µM (inactive) | > 86.3 µM (inactive) | > 100 µM (inactive) | > 100 µM (inactive) | > 100 µM (inactive) | > 100 µM (inactive) | 58.7 µM (inactive) | > 100 µM (inactive) | > 100 µM (inactive) | > 100 µM (inactive) | > 100 µM (inactive) | 4.42 µM (inactive) | 42.6 µM (inactive) | 55.1 µM (inactive) | > 81.5 µM (inactive) | > 100 µM (inactive) |
| Cc1cc(C)c2c(O)cc(-c3cccc(Cl)c3)nc2n1 | 0.161 µM (active) | 0.0492 µM (active) | 0.0518 µM (active) | 0.187 µM (active) | 0.0316 µM (active) | 1.59 µM (inactive) | 0.208 µM (active) | 5.09 µM (inactive) | > 25 µM (inactive) | 0.134 µM (active) | 0.76 µM (active) | 1.95 µM (inactive) | > 41.1 µM (inactive) | < 0.0199 µM (active) | 0.206 µM (active) | 0.0855 µM (active) | 0.5 µM (active) | 0.227 µM (active) | 21.9 µM (inactive) | 0.0115 µM (active) |
| Clc1cc(Cl)c2cc3cccc[n+]3cc2c1Cl | 14 µM (inactive) | 18 µM (inactive) | 16 µM (inactive) | 17.9 µM (inactive) | 12.7 µM (inactive) | 6.76 µM (inactive) | 14.2 µM (inactive) | 15.5 µM (inactive) | 13.8 µM (inactive) | 17.5 µM (inactive) | 16.1 µM (inactive) | 15.2 µM (inactive) | 18.7 µM (inactive) | 19 µM (inactive) | 16.7 µM (inactive) | 12.2 µM (inactive) | 15.2 µM (inactive) | 17.2 µM (inactive) | 5.87 µM (inactive) | 16.3 µM (inactive) |
| COc1c(O)cc2c3c(ccnc13)NC=C2 | 3.25 µM (inactive) | > 100 µM (inactive) | > 100 µM (inactive) | > 100 µM (inactive) | 11.4 µM (inactive) | > 100 µM (inactive) | 26.7 µM (inactive) | > 100 µM (inactive) | > 100 µM (inactive) | > 100 µM (inactive) | > 100 µM (inactive) | > 100 µM (inactive) | > 100 µM (inactive) | 96.6 µM (inactive) | 80.2 µM (inactive) | 17.3 µM (inactive) | > 100 µM (inactive) | > 100 µM (inactive) | > 100 µM (inactive) | > 100 µM (inactive) |
| COc1ncnc2c1cnn2Cc1cn(COCC(O)CO)nn1 (stereo not given) | > 100 µM (inactive) | > 100 µM (inactive) | > 100 µM (inactive) | > 100 µM (inactive) | > 100 µM (inactive) | > 100 µM (inactive) | > 100 µM (inactive) | > 100 µM (inactive) | > 100 µM (inactive) | > 100 µM (inactive) | > 100 µM (inactive) | > 100 µM (inactive) | > 100 µM (inactive) | > 100 µM (inactive) | > 100 µM (inactive) | > 100 µM (inactive) | > 100 µM (inactive) | > 100 µM (inactive) | 22.8 µM (inactive) | > 100 µM (inactive) |
| CSc1ccc2c(c1)N(CCCN(C)C)c1ccccc1S2 | 5.81 µM (inactive) | 12.8 µM (inactive) | 11.4 µM (inactive) | 13.1 µM (inactive) | 12 µM (inactive) | 15.4 µM (inactive) | 11.9 µM (inactive) | 2.29 µM (inactive) | 18.6 µM (inactive) | 5.19 µM (inactive) | 16.4 µM (inactive) | 7.16 µM (inactive) | 14.9 µM (inactive) | 4.28 µM (inactive) | 13.5 µM (inactive) | 6.19 µM (inactive) | 15.6 µM (inactive) | 15.4 µM (inactive) | 11.7 µM (inactive) | 4.67 µM (inactive) |
